Experimental data taken from publication PMC5242521 (PLoS ONE, 2017).

Legend:
[1] = target: T1, OATP2B1 (Homo sapiens, UniProt O94956); assay: OATP2B1 activity: E3S accumulation in HEK-OATP2B1 cells; settings: for effect on OATP2B1 activity: pyrethroid 100 μM
T1 sequence (O94956 1-709): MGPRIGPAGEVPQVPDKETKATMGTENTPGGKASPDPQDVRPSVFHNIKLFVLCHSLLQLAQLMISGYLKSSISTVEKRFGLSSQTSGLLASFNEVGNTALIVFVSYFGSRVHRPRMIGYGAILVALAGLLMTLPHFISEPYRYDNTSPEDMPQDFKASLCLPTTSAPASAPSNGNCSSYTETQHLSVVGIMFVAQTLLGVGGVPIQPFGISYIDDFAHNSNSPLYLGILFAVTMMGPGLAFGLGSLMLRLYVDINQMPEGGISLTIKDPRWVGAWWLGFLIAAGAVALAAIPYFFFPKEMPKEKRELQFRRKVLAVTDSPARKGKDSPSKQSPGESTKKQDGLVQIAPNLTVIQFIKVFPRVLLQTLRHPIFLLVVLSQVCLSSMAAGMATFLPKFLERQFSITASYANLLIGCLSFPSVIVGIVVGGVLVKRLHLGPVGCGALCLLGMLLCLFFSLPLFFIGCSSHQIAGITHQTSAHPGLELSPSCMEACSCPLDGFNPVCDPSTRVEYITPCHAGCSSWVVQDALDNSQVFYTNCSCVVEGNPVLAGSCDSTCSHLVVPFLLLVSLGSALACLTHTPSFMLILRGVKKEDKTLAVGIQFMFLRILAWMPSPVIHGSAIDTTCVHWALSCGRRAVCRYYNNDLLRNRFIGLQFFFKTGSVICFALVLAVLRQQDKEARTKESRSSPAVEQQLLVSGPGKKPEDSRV
Experimental: (§1) The effects of pyrethroids on activity of ABC and SLC transporters were determined through measuring cellular accumulation or retention of fluorescent or radiolabeled reference substrates for transporters, in the presence or absence of reference inhibitors, as previously described. The nature of cells and reference substrates and inhibitors used for transport assays are summarized in S3 Table.
(§2) The nature of substrates and reference inhibitors and the incubation times with substrates, that varied according to the transporter, were selected in agreement with previous studies and are indicated in S3 Table. The total incubation volume with substrates was 200 μL/well. […] An aliquot of cell lysate (5 μL) was then taken for determining cellular protein content by the Bradford method.
(§3) Intracellular concentrations of reference substrates were initially expressed as fluorescence arbitrary units (for fluorescent dye substrates) or as moles (for radiolabeled substrates) and normalized to cellular protein content, determined by the Bradford method. They were finally used for calculating percentage of transporter activity, according to the following equations [41, 45]: %ABCtransporter activity=([Substrateref inh]-[Substratepyrethroid])×100/([Substrateref inh]-[Substratecontrol]) (1) %SLC transporter activity=([Substratepyrethroid]-[Substratref inh])×100/([Substratecontrol]-[Substrateref inh]) (2) with [Substratepyrethroid] = cellular concentration of reference substrate in the presence of pyrethroid, [Substrateref inh] = cellular concentration of reference substrate in the presence of reference inhibitor and [Substratecontrol] = cellular concentration of reference substrate in control cells not exposed to pyrethroid or reference inhibitor.
(§4) The initial tested concentration of pyrethroids was 100 μM. […] Such concentrations were calculated using GraphPad Prism software (GraphPad Software, La Jolla, CA), through nonlinear regression based on the four parameter logistic function using the following equations: […]

[2] = target: T2, OCT1 (Homo sapiens, UniProt O15245); assay: OCT1 activity: DAPI accumulation in HEK-OCT1 cells; settings: for effect on OCT1 activity: pyrethroid 100 μM; for effect on OCT1 activity / IC50: DAPI; for IC50: IC50 for OCT1 inhibition, HEK-OCT1 cells; for inhibition at 100 μM: human, pH 7.4
T2 sequence (O15245 1-554): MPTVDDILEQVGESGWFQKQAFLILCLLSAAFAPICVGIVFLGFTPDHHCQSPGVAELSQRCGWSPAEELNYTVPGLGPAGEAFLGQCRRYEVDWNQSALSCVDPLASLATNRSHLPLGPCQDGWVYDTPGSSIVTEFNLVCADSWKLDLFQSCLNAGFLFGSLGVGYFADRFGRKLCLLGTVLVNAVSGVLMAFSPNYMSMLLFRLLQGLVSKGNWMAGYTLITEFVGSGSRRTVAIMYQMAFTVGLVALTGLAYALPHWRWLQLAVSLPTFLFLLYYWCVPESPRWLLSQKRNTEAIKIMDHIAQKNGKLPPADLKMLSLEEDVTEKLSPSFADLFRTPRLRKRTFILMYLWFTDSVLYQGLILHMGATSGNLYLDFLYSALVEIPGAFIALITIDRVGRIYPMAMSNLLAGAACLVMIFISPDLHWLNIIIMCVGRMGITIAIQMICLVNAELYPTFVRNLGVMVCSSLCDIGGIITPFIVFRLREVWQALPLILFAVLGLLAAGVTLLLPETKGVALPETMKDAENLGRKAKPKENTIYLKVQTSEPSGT
Experimental: as §1, §2, §3, §4

[3] = target: T3, OCT2 (Homo sapiens, UniProt O15244); assay: OCT2 activity: rhodamine 123 accumulation in HEK-OCT2 cells; settings: for effect on OCT2 activity: pyrethroid 100 μM
T3 sequence (O15244 1-555): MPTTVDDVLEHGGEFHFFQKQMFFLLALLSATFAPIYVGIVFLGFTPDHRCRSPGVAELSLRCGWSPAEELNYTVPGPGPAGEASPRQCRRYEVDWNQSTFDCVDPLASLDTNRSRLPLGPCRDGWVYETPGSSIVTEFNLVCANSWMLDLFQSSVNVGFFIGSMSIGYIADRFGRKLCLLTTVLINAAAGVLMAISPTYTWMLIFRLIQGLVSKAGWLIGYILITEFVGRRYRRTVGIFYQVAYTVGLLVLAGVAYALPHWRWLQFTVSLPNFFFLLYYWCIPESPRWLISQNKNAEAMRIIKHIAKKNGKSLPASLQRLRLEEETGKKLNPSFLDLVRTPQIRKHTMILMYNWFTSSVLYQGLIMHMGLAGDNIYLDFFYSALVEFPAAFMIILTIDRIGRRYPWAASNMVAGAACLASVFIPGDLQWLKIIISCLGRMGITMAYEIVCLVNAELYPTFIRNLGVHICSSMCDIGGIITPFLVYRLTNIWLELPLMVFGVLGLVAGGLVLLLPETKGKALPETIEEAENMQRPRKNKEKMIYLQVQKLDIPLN
Experimental: as §1, §2, §3, §4

SMILES	effect on OATP2B1 activity [1]	effect on OCT1 activity [2]	effect on OCT2 activity [3]	EC50 [1] [µM]	IC50 [2] [µM]	inhibition at 100 μM [2] [%]	IC50 [3] [µM]
C#CCN1CC(=O)N(COC(=O)[C@@H]2C(C=C(C)C)C2(C)C)C1=O (mixture of isomers) [imiprothrin]	cis-stimulated	markedly inhibited	inhibited	–	–	–	–
CC(C)=CC1C(C(=O)OCN2C(=O)C3=C(CCCC3)C2=O)C1(C)C (centres unmarked) [tetramethrin]	–	–	markedly inhibit	10.1	4.9	73.8	11.2
C#CCC1=C(C)C(OC(=O)C2C(C=C(C)C)C2(C)C)CC1=O (centres unmarked) [prallethrin]	cis-stimulated	markedly inhibited	inhibited	–	–	–	–
C=CCC1=C(C)C(OC(=O)C2C(C=C(C)C)C2(C)C)CC1=O (centres unmarked) [allethrin]	cis-stimulated	–	markedly inhibit	37.8	2.6	87.9	42.6
